Laboratory results taken from ChEMBL document CHEMBL1137308 (J Med Chem, 2006).
In brackets after ≈: the same amount, converted by molar mass. Activity calls are given as the source filed them. The rule behind the calls is not given here.

Experiments:
Escherichia coli [1] = test: Inhibition of Escherichia coli DNA synthesis; type: functional, organism-based
Streptococcus pneumoniae [2] = test: Antibacterial activity against Streptococcus pneumonia SVI SP3; type: functional
Enterococcus faecalis [3] = test: Activity against sc dosed mouse infected with Enterococcus faecalis; type: functional; settings: read-out: PD50
Staphylococcus aureus [4] = test: Antibacterial activity against Staphylococcus aureus UC-76 SA-1; type: functional
Streptococcus pyogenes [5] = test: Antibacterial activity against Streptococcus pyogenes […]; type: functional
Klebsiella pneumoniae [6] = test: Antibacterial activity against Klebsiella pneumonia KP2; type: functional
Staphylococcus aureus [7] = test: Antibacterial activity against ciprofolxacin-resistant Staphylococcus aureus SA2017; type: functional
Streptococcus pyogenes [8] = test: Activity against po dosed mouse infected with Streptococcus pyogenes; type: functional; settings: read-out: PD50
Moraxella catarrhalis = test: Antibacterial activity against Moraxella catarrhalis BC-3531; type: functional
[9] = target: T1, DNA gyrase (Escherichia coli) (UniProt P0AES6+P0AES4); test: Ability to inhibit DNA supercoiling activity of Escherichia coli gyrase; type: functional
Klebsiella pneumoniae [10] = test: Antibacterial activity against Klebsiella pneumonia ESBL KP3729; type: functional
Enterococcus faecalis [11] = test: Activity against po dosed mouse infected with Enterococcus faecalis; type: functional; settings: read-out: PD50
Staphylococcus aureus [12] = test: Antibacterial activity against methicillin-resistant Staphylococcus aureus SA1417; type: functional
Staphylococcus aureus [13] = test: Antibacterial activity against Staphylococcus aureus SA2552; type: functional
Staphylococcus aureus [14] = test: Antibacterial activity against Staphylococcus aureus SA2554; type: functional
Escherichia coli [15] = test: Antibacterial activity against Escherichia coli EC1-10; type: functional
Streptococcus pneumoniae [16] = test: Antibacterial activity against quinolone-resistant Streptococcus pneumonia SP3763; type: functional
Streptococcus pyogenes [17] = test: Antibacterial activity against Streptococcus pyogenes C203 SP1-1; type: functional
Enterococcus faecalis [18] = test: Antibacterial activity against Enterococcus faecalis EF1-3524; type: functional
Pseudomonas aeruginosa = test: Antibacterial activity against Pseudomonas aeruginosa PA7; type: functional
Haemophilus influenzae = test: Antibacterial activity against Haemophilus influenzae HI3542; type: functional
Escherichia coli [19] = test: Antibacterial activity against Escherichia coli EC2026; type: functional
Streptococcus pyogenes [20] = test: Activity against sc dosed mouse infected with Streptococcus pyogenes; type: functional; settings: read-out: PD50
DNA gyrase = DNA gyrase (Escherichia coli, UniProt P0AES4+P0AES6); test: Inhibition of Escherichia coli gyrase; type: functional
Enterococcus faecalis [21] = test: Antibacterial activity against Enterococcus faecalis MGH2 EF1-1; type: functional
[22] = target: T1, DNA gyrase (Escherichia coli); test: Displacement of [14C]ciprofloxacin from Escherichia coli gyrase; type: protein-complex assay
Staphylococcus aureus [23] = test: Antibacterial activity against Staphylococcus aureus SA2558; type: functional
Staphylococcus aureus [24] = test: Antibacterial activity against Staphylococcus aureus SA1417; type: functional
Enterococcus faecalis [25] = test: Antibacterial activity against Enterococcus faecalis […]; type: functional
Providencia rettgeri = test: Antibacterial activity against Providencia rettgeri PR9; type: functional
Enterococcus faecium = test: Antibacterial activity against vancomycin-resistant Enterococcus faecium EF4-3489; type: functional
Escherichia coli [26] = test: Antibacterial activity against Escherichia coli EC2549; type: functional

| SMILES | MIC (Streptococcus pneumoniae [2]) | MIC (Staphylococcus aureus [4]) | MIC (Klebsiella pneumoniae [6]) | MIC (Staphylococcus aureus [7]) | MIC (Moraxella catarrhalis) | MIC (Klebsiella pneumoniae [10]) | MIC (Staphylococcus aureus [12]) | MIC (Staphylococcus aureus [13]) | MIC (Staphylococcus aureus [14]) | MIC (Escherichia coli [15]) | MIC (Streptococcus pneumoniae [16]) | MIC (Streptococcus pyogenes [17]) | MIC (Enterococcus faecalis [18]) | MIC (Pseudomonas aeruginosa) | MIC (Haemophilus influenzae) | MIC (Enterococcus faecalis [21]) | MIC (Staphylococcus aureus [23]) | MIC (Staphylococcus aureus [24]) | MIC (Providencia rettgeri) | MIC (Enterococcus faecium) | other results |
| --- | --- | --- | --- | --- | --- | --- | --- | --- | --- | --- | --- | --- | --- | --- | --- | --- | --- | --- | --- | --- | --- |
| Cc1c(N2CC[C@@H]([C@H](C)N)C2)c(F)cc2c(=O)n(N)c(=O)n(C3CC3)c12 | 0.015 µg/mL (≈ 0.0415 µM) | 0.06 µg/mL (≈ 0.166 µM) | 1 µg/mL (≈ 2.77 µM) | 0.5 µg/mL (≈ 1.38 µM) | 0.25 µg/mL (≈ 0.692 µM) | 2 µg/mL (≈ 5.53 µM) | 0.125 µg/mL (≈ 0.346 µM) | 0.25 µg/mL (≈ 0.692 µM) | 0.13 µg/mL (≈ 0.36 µM) | 1 µg/mL (≈ 2.77 µM) | 0.06 µg/mL (≈ 0.166 µM) | 0.015 µg/mL (≈ 0.0415 µM) | 0.25 µg/mL (≈ 0.692 µM) | 4 µg/mL (≈ 11.1 µM) | 0.125 µg/mL (≈ 0.346 µM) | 0.125 µg/mL (≈ 0.346 µM) | 0.25 µg/mL (≈ 0.692 µM) | 0.125 µg/mL (≈ 0.346 µM) | 2 µg/mL (≈ 5.53 µM) | 1 µg/mL (≈ 2.77 µM) | Activity (Escherichia coli [1]): Active; ED50 (Enterococcus faecalis [3]): 4.2 mg/kg; MIC (Streptococcus pyogenes [5]): 0.015 µg/mL (≈ 0.0415 µM); ED50 (Streptococcus pyogenes [8]): 1.4 mg/kg; Activity [9]: Active; ED50 (Enterococcus faecalis [11]): 19 mg/kg; MIC (Escherichia coli [19]): 1 µg/mL (≈ 2.77 µM); ED50 (Streptococcus pyogenes [20]): 0.27 mg/kg; IC50 (DNA gyrase): 200 nM; Activity [22]: Active; MIC (Enterococcus faecalis [25]): 0.06 µg/mL (≈ 0.166 µM); MIC (Escherichia coli [26]): 0.03 µg/mL (≈ 0.083 µM) |
| C[C@H]1NCc2cc(-c3ccc4c(=O)c(C(=O)O)cn(C5CC5)c4c3OC(F)F)ccc21 [GARENOXACIN] | 0.03 µg/mL (≈ 0.0704 µM) | 0.015 µg/mL (≈ 0.0352 µM) | 0.06 µg/mL (≈ 0.141 µM) | 2 µg/mL (≈ 4.69 µM) | 0.03 µg/mL (≈ 0.0704 µM) | 32 µg/mL (≈ 75 µM) | 0.03 µg/mL (≈ 0.0704 µM) | 0.03 µg/mL (≈ 0.0704 µM) | 0.03 µg/mL (≈ 0.0704 µM) | 0.25 µg/mL (≈ 0.586 µM) | 1 µg/mL (≈ 2.35 µM) | 0.06 µg/mL (≈ 0.141 µM) | 4 µg/mL (≈ 9.38 µM) | 1 µg/mL (≈ 2.35 µM) | 0.015 µg/mL (≈ 0.0352 µM) | 0.125 µg/mL (≈ 0.293 µM) | 2 µg/mL (≈ 4.69 µM) | 0.06 µg/mL (≈ 0.141 µM) | 0.06 µg/mL (≈ 0.141 µM) | 8 µg/mL (≈ 18.8 µM) | MIC (Escherichia coli [19]): 0.03 µg/mL (≈ 0.0704 µM); MIC (Escherichia coli [26]): 0.008 µg/mL (≈ 0.0188 µM) |
| O=C(O)c1cn(C2CC2)c2cc(N3CCNCC3)c(F)cc2c1=O [CIPROFLOXACIN] | 1 µg/mL (≈ 3.02 µM) | 0.13 µg/mL (≈ 0.392 µM) |  | > 64 µg/mL | 0.03 µg/mL (≈ 0.0905 µM) |  | 0.5 µg/mL (≈ 1.51 µM) |  | 2 µg/mL (≈ 6.04 µM) |  | 64 µg/mL (≈ 193 µM) | 0.5 µg/mL (≈ 1.51 µM) | 32 µg/mL (≈ 96.6 µM) | 0.06 µg/mL (≈ 0.181 µM) | 0.008 µg/mL (≈ 0.0241 µM) | 0.5 µg/mL (≈ 1.51 µM) | 64 µg/mL (≈ 193 µM) | 0.5 µg/mL (≈ 1.51 µM) | 0.06 µg/mL (≈ 0.181 µM) | > 64 µg/mL |  |
| C[C@H]1COc2c(N3CCN(C)CC3)c(F)cc3c(=O)c(C(=O)O)cn1c23.C[C@H]1COc2c(N3CCN(C)CC3)c(F)cc3c(=O)c(C(=O)O)cn1c23.O [LEVOFLOXACIN] |  | 0.125 µg/mL | 0.03 µg/mL | 8 µg/mL | 0.03 µg/mL | 8 µg/mL | 0.25 µg/mL | 0.25 µg/mL | 0.5 µg/mL |  |  | 0.5 µg/mL | 32 µg/mL | 0.5 µg/mL | 0.008 µg/mL | 1 µg/mL | 8 µg/mL | 0.25 µg/mL | 0.5 µg/mL | 64 µg/mL |  |
| COc1c(N2CCNC(C)C2)c(F)cc2c(=O)c(C(=O)O)cn(C3CC3)c12 (stereo not drawn) [GATIFLOXACIN] | 0.125 µg/mL (≈ 0.333 µM) | 0.03 µg/mL (≈ 0.0799 µM) | 0.06 µg/mL (≈ 0.16 µM) | 8 µg/mL (≈ 21.3 µM) | 0.03 µg/mL (≈ 0.0799 µM) | 8 µg/mL (≈ 21.3 µM) | 0.125 µg/mL (≈ 0.333 µM) | 0.125 µg/mL (≈ 0.333 µM) | 0.125 µg/mL (≈ 0.333 µM) | 0.06 µg/mL (≈ 0.16 µM) | 4 µg/mL (≈ 10.7 µM) | 0.5 µg/mL (≈ 1.33 µM) | 16 µg/mL (≈ 42.6 µM) | 0.5 µg/mL (≈ 1.33 µM) | 0.015 µg/mL (≈ 0.04 µM) | 0.5 µg/mL (≈ 1.33 µM) | 4 µg/mL (≈ 10.7 µM) | 0.125 µg/mL (≈ 0.333 µM) | 0.5 µg/mL (≈ 1.33 µM) | 32 µg/mL (≈ 85.2 µM) | MIC (Escherichia coli [19]): < 0.06 µg/mL; MIC (Escherichia coli [26]): < 0.06 µg/mL |
| COc1c(N2CC[C@@H]([C@H](C)N)C2)c(F)cc2c(=O)n(N)c(=O)n(C3CC3)c12 | 0.03 µg/mL (≈ 0.0795 µM) | 0.13 µg/mL (≈ 0.344 µM) | 8 µg/mL (≈ 21.2 µM) | 1 µg/mL (≈ 2.65 µM) | 1 µg/mL (≈ 2.65 µM) | 8 µg/mL (≈ 21.2 µM) | 0.25 µg/mL (≈ 0.662 µM) | 0.5 µg/mL (≈ 1.32 µM) | 0.25 µg/mL (≈ 0.662 µM) | 2 µg/mL (≈ 5.3 µM) | 0.06 µg/mL (≈ 0.159 µM) | 0.03 µg/mL (≈ 0.0795 µM) | 0.25 µg/mL (≈ 0.662 µM) | 8 µg/mL (≈ 21.2 µM) | 0.25 µg/mL (≈ 0.662 µM) | 0.13 µg/mL (≈ 0.344 µM) | 0.5 µg/mL (≈ 1.32 µM) | 0.5 µg/mL (≈ 1.32 µM) | 4 µg/mL (≈ 10.6 µM) | 1 µg/mL (≈ 2.65 µM) | ED50 (Enterococcus faecalis [3]): 11 mg/kg; MIC (Streptococcus pyogenes [5]): 0.03 µg/mL (≈ 0.0795 µM); ED50 (Streptococcus pyogenes [8]): 3.1 mg/kg; ED50 (Enterococcus faecalis [11]): 38 mg/kg; MIC (Escherichia coli [19]): 4 µg/mL (≈ 10.6 µM); ED50 (Streptococcus pyogenes [20]): 1.2 mg/kg; IC50 (DNA gyrase): 600 nM; MIC (Enterococcus faecalis [25]): 0.25 µg/mL (≈ 0.662 µM); MIC (Escherichia coli [26]): 0.13 µg/mL (≈ 0.344 µM) |
